In patent US8735411B2, “Macrocyclic benzofused pyrimidine derivatives” (AbbVie Inc., priority 2006, dated 2014):

Legend:
[1] = molecular target: T1, histamine H4 receptor (Homo sapiens, UniProt Q9H3N8); assay: [3H]-histamine competition binding assay on membranes of transfected HEK-293 cells; design: expressed in transfected cells; host or cells: HEK-293 cells, transient transfection with pCINeo vector; membranes; details: displacement of [3H]-histamine; Ki by Cheng-Prusoff equation; read-out: Potency
Protocol: In this assay, membranes were prepared from HEK-293 cells transiently transfected with the pCINeo expression vector harboring the histamine H4 receptor by homogenization of the cells on ice in TE buffer (50 mM Tris-HCl buffer, pH 7.4, containing 5 mM EDTA), 1 mM benzamidine, 2 μg/ml aprotinin, 1 μg/ml leupeptin, and 1 μg/ml pepstatin. The homogenate was centrifuged at 40,000 g for 20 minutes at 4° C. This step was repeated, and the resulting pellet was resuspended in TE buffer. Aliquots were frozen at −70° C. until needed. On the day of assay, membranes were thawed and diluted with TE buffer. Competition radioligand binding assays were performed with increasing concentrations of test compound in the presence of [^3H]-histamine incubated at 25° C. for 1 hour in a total volume of 0.5 ml of 50 mM Tris, 5 mM EDTA, pH 7.4. All binding reactions were terminated by filtration under vacuum onto polyethylenimine (0.3%) presoaked Unifilters (PerkinElmer Life Sciences) or Whatman GF/B filters (Whatman, Clifton, N.J.) followed by three brief washes with 4 ml of ice-cold TE buffer. Bound radiolabel was determined by liquid scintillation counting. For all of the radioligand competition binding assays, IC50 values and Hill slopes were determined by Hill transformation of the data and Ki values were determined by the Cheng-Prusoff equation.

[2] = molecular target: T1, histamine H4 receptor; assay: In vitro histamine H4 potency in FLIPR (Ca2+ flux, HEK-293 cells coexpressing Gαqi5); format: cell-based; design: expressed in transfected cells; details: Kb for antagonists and inverse agonists, EC50 for partial agonists
Procedure, shortened: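 Fluo-4-loaded cells read on FLIPR for intracellular Ca2+ rise after compound addition, with pre-addition fluorescence subtracted. Peak responses per concentration expressed as % of the full-agonist histamine response. Concentration–response fits give Kb for antagonists/inverse agonists and EC50 for partial agonists.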

[3] = test system: inflammatory pain; assay: Analgesic effect against inflammatory pain: carrageenan-induced thermal hyperalgesia, hotbox assay; format: in vivo; details: 100 micromole/kg i.p., 90 min after carrageenan, tested 30 min after dosing
Protocol: To assess the effectiveness of representative compounds of the invention against acute model inflammatory pain, animals were tested in an acute model of carrageenan-induced thermal hyperalgesia (see for example, Honore, et al. Behavioural Brain Research 167 (2006) 355-364; Porreca, et al. Journal of Pharmacology and Experimental Therapeutics (2006) vol. 318 pp. 195-205). Carrageenan was injected into the test paw of the animal, and after 90 minutes, the test drug was administered by intraperitoneal dosing; the effect on thermal hyperalgesia was assessed in a hotbox assay which done 30 minutes after the intraperitoneal dosing of the test drug, and the MPE (maximal percent effect) reported by comparison to the control paw (not injected with carrageenan), according to 100 times the withdrawal latency of the carrageenan injected paw (in seconds) divided by the withdrawal latency of the control (not injected with carrageenan) paw.

[4] = test system: neuropathic pain; assay: Analgesic effect against neuropathic pain: L5/L6 spinal nerve ligation (Chung model), von Frey mechanical allodynia; format: in vivo, rat; details: 30 minutes before testing
Protocol: Animals were prepared for testing, by use of a surgical procedure that induces neuropathic pain in one paw. Male Sprague Dawley rats were purchased from Charles River (Portage, Mich.). Prior to surgery, animals were housed in groups and maintained in a temperature-regulated environment. Following nerve ligation surgery, animals were housed in groups, and had access to food and water ad libitum.
The L5 and L6 spinal nerves of anesthetized rats were tightly ligated in a manner described previously (see Kim and Chung, Pain (1992) vol. 50 pp. 355-363). An incision was made on the dorsal portion of the hip and the muscle was blunt-dissected to reveal the spinal processes. The L6 transverse process was removed, and the left side L5 and L6 spinal nerves were tightly ligated with 5.0 braided silk suture. The wound was cleaned, the membrane sewn with 4.0 dissolvable Vicryl suture and the skin closed with wound clips. The paw affected by the surgical procedure (the left paw) develops an allodynic response, a hypersensitivity to mechanical and other stimuli; neuropathic pain is assessed as an increased sensitivity in the surgically affected (left) allodynic paw compared to the control paw on the right side, and measured by comparing the response of the (left side) allodynic paw to the response of the unaffected right side control paw.
For the assessment of neuropathic pain, mechanical allodynia in the affected paw of animals that had undergone spinal nerve ligation was evaluated using testing with von Frey filaments. As described previously by S. R. Chaplan, et al (“Quantitative assessment of tactile allodynia in the rat paw” J. Neurosci. Meth. (1994) vol. 53 pp. 55-63), two weeks following surgery rats were acclimated to a testing box constructed of plexiglass with a wire mesh floor which allowed access to the plantar surface of the animal's hindpaws. Using an Up-Down method (Dixon, Annu. Rev. Pharmacol. Toxicol. (1980) vol. 20, pp. 441-462; Chaplan et al. “Quantitative assessment of tactile allodynia in the rat paw” J. Neuroscience Methods (1994) vol. 53 pp. 55-63), von Frey filaments of increasing stiffness were applied to the plantar surface of the hindpaws and the withdrawal response of the animals was observed; for the surgically affected paw with neuropathic pain (the left side paw) the baseline level of allodynia has a withdrawal threshold of ≦4 g of pressure. […] The efficacy of the compound in reducing neuropathic pain at different doses is determined by comparing response in the surgery-affected paw versus the response in the control paw. This is expressed as the MPE (maximum percent effect), or 100 times the withdrawal threshold of the allodynic (left side) divided by the withdrawal threshold of the control (right side).

[5] = test system: pain in a surgical skin incision model; assay: Analgesic effect in surgical skin incision model, von Frey mechanical allodynia; format: in vivo, rat
Protocol: This is a surgical skin incision model (Joshi, et al. Pain 123 (2006) 75-82). Animals (rats) were prepared for testing by subjecting them in a surgical procedure carried out under sterile conditions, where the plantaris muscle was elevated and incised longitudinally with the origin and insertion of the muscle remaining intact. The skin was then closed with two mattress sutures (e.g. 5-0 nylon sutures). After surgery, animals were allowed to recover on a warming plate and housed individually in cages with soft bedding. […] Animals were tested for mechanical allodynia using von Frey hair mechanical stimulation 2, 24, and 48 h after surgery as described for the Chung model.

Ki [1] | Potency [2] | SMILES | MPE [3] | MPE ([4]; 100 micromole/kg i.p.) | MPE ([4]; 300 micromole/kg i.p.) | MPE ([5]; 30 micromole/kg i.p.) | MPE ([5]; 100 micromole/kg i.p.)
4 nM | 9.3 nM | CNC1CN(c2nc(N)nc3c2CCCc2ccccc2-3)C1 [Example 3, 4-(3-Methylamino-azetidin-1-yl)-6,7-dihydro-5H-benzo[6,7]cyclohepta[1,2-d]pyrimidin-2-ylamine] | 41% | 36% | 78% | 21% | 69%
5 nM | 6.6 nM | CN[C@@H]1CCN(c2nc(N)nc3c2CCCc2ccccc2-3)C1 [Example 6, 4-(3-(R)-Methylamino-pyrrolidin-1-yl)-6,7-dihydro-5H-benzo[6,7]cyclohepta[1,2-d]pyrimidin-2-ylamine] |  |  |  |  | 
8 nM | 15 nM | Nc1nc2c(c(N3CCNCC3)n1)CCCc1ccccc1-2 [Example 7, 4-Piperazin-1-yl-6,7-dihydro-5H-benzo[6,7]cyclohepta[1,2-d]pyrimidin-2-ylamine] | 23% | 30% |  |  | 
 |  | Nc1nc2c(c(N3CC[C@@H](N)C3)n1)CCCc1ccccc1-2 [Example 16, 4-((3R)-3-Amino-pyrrolidin-1-yl)-6,7-dihydro-5H-benzo[6,7]cyclohepta[1,2-d]pyrimidin-2-ylamine] | 68% | 47% |  |  | 
